Values after ≈ are worked out from the molar mass of the structure shown.
test system: Staphylococcus aureus; test: animal or person; conditions: in Mus musculus, po, read-out: PD50
Description: In vivo potency on systemic infection caused by Staphylococcus aureus A9537 after oral administration to mice expressed as median protective dose.

SMILES	ED50 [mg/kg]
C[C@@H]1C[C@@H](N)CN1c1nc2c(cc1F)c(=O)c(C(=O)O)cn2C(C)(C)C (stereo in doubt; 68)	0.9
CN[C@H]1CCN(c2nc3c(cc2F)c(=O)c(C(=O)O)cn3C(C)(C)C)C1	0.31
O=C(O)c1cn(C2CC2)c2cc(N3CCNCC3)c(F)cc2c1=O [CIPROFLOXACIN]	4
C[C@H]1CN(c2nc3c(cc2F)c(=O)c(C(=O)O)cn3C(C)(C)C)C[C@H]1N	1

test system: Serratia marcescens; test: In vitro antibacterial activity against Serratia marcescens A 20019.; format: functional; conditions: not given

SMILES	MIC [µg/mL]
C[C@@H]1C[C@@H](N)CN1c1nc2c(cc1F)c(=O)c(C(=O)O)cn2C(C)(C)C (stereo in doubt; 68)	0.5 (≈ 1.38 µM)

same assay, conditions: Serratia marcescens; read-out: MIC

SMILES	MIC [µg/mL]
CN[C@H]1CCN(c2nc3c(cc2F)c(=O)c(C(=O)O)cn3C(C)(C)C)C1	0.25 (≈ 0.69 µM)
O=C(O)c1cn(C2CC2)c2cc(N3CCNCC3)c(F)cc2c1=O [CIPROFLOXACIN]	0.03 (≈ 0.0905 µM)
C[C@H]1CN(c2nc3c(cc2F)c(=O)c(C(=O)O)cn3C(C)(C)C)C[C@H]1N	0.13 (≈ 0.359 µM)

test system: Enterococcus faecalis; test: In vitro antibacterial activity against Enterococcus faecalis A9809.; format: functional; conditions: not given

SMILES	MIC [µg/mL]
C[C@@H]1C[C@@H](N)CN1c1nc2c(cc1F)c(=O)c(C(=O)O)cn2C(C)(C)C (stereo in doubt; 68)	0.03 (≈ 0.0828 µM)

same assay, conditions: Enterococcus faecalis; read-out: MIC

SMILES	MIC [µg/mL]
CN[C@H]1CCN(c2nc3c(cc2F)c(=O)c(C(=O)O)cn3C(C)(C)C)C1	1 (≈ 2.76 µM)
C[C@H]1CN(c2nc3c(cc2F)c(=O)c(C(=O)O)cn3C(C)(C)C)C[C@H]1N	0.25 (≈ 0.69 µM)

test system: not listed separately; test: in vivo; conditions: mouse, po, 50 mg/kg

SMILES	Cmax [ng/mL]
O=C(O)c1cn(C2CC2)c2cc(N3CCNCC3)c(F)cc2c1=O [CIPROFLOXACIN]	5900

test system: Klebsiella pneumoniae; test: In vitro antibacterial activity against Klebsiella pneumoniae A 9664.; format: functional; conditions: Klebsiella pneumoniae; read-out: MIC

SMILES	MIC [µg/mL]
C[C@@H]1C[C@@H](N)CN1c1nc2c(cc1F)c(=O)c(C(=O)O)cn2C(C)(C)C (stereo in doubt; 68)	0.5 (≈ 1.38 µM)
CN[C@H]1CCN(c2nc3c(cc2F)c(=O)c(C(=O)O)cn3C(C)(C)C)C1	0.06 (≈ 0.166 µM)
O=C(O)c1cn(C2CC2)c2cc(N3CCNCC3)c(F)cc2c1=O [CIPROFLOXACIN]	0.06 (≈ 0.181 µM)
C[C@H]1CN(c2nc3c(cc2F)c(=O)c(C(=O)O)cn3C(C)(C)C)C[C@H]1N	0.5 (≈ 1.38 µM)

test system: Enterobacter cloacae; test: In vitro antibacterial activity against Enterobacter cloacae A 9656.; format: functional; conditions: not given

SMILES	MIC [µg/mL]
C[C@@H]1C[C@@H](N)CN1c1nc2c(cc1F)c(=O)c(C(=O)O)cn2C(C)(C)C (stereo in doubt; 68)	0.13 (≈ 0.359 µM)

same assay, conditions: Enterobacter cloacae; read-out: MIC

SMILES	MIC [µg/mL]
CN[C@H]1CCN(c2nc3c(cc2F)c(=O)c(C(=O)O)cn3C(C)(C)C)C1	0.06 (≈ 0.166 µM)
C[C@H]1CN(c2nc3c(cc2F)c(=O)c(C(=O)O)cn3C(C)(C)C)C[C@H]1N	0.13 (≈ 0.359 µM)

test system: Enterococcus faecium; test: In vitro antibacterial activity against Enterococcus faecium A 24885.; format: functional; conditions: not given

SMILES	MIC [µg/mL]
C[C@@H]1C[C@@H](N)CN1c1nc2c(cc1F)c(=O)c(C(=O)O)cn2C(C)(C)C (stereo in doubt; 68)	0.5 (≈ 1.38 µM)

same assay, conditions: Enterococcus faecium; read-out: MIC

SMILES	MIC [µg/mL]
CN[C@H]1CCN(c2nc3c(cc2F)c(=O)c(C(=O)O)cn3C(C)(C)C)C1	2 (≈ 5.52 µM)
O=C(O)c1cn(C2CC2)c2cc(N3CCNCC3)c(F)cc2c1=O [CIPROFLOXACIN]	4 (≈ 12.1 µM)
C[C@H]1CN(c2nc3c(cc2F)c(=O)c(C(=O)O)cn3C(C)(C)C)C[C@H]1N	1 (≈ 2.76 µM)

test system: Staphylococcus aureus; test: In vitro antibacterial activity against Staphylococcus aureus A9537.; format: functional; conditions: not given

SMILES	MIC [µg/mL]
C[C@@H]1C[C@@H](N)CN1c1nc2c(cc1F)c(=O)c(C(=O)O)cn2C(C)(C)C (stereo in doubt; 68)	0.002 (≈ 0.00552 µM)

same assay, conditions: Staphylococcus aureus; read-out: MIC

SMILES	MIC [µg/mL]
CN[C@H]1CCN(c2nc3c(cc2F)c(=O)c(C(=O)O)cn3C(C)(C)C)C1	0.015 (≈ 0.0414 µM)
O=C(O)c1cn(C2CC2)c2cc(N3CCNCC3)c(F)cc2c1=O [CIPROFLOXACIN]	0.06 (≈ 0.181 µM)
C[C@H]1CN(c2nc3c(cc2F)c(=O)c(C(=O)O)cn3C(C)(C)C)C[C@H]1N	0.008 (≈ 0.0221 µM)

test system: Morganella morganii; test: In vitro antibacterial activity against Morganella morganii A 15153.; format: functional; conditions: not given

SMILES	MIC [µg/mL]
C[C@@H]1C[C@@H](N)CN1c1nc2c(cc1F)c(=O)c(C(=O)O)cn2C(C)(C)C (stereo in doubt; 68)	0.25 (≈ 0.69 µM)

same assay, conditions: Morganella morganii; read-out: MIC

SMILES	MIC [µg/mL]
CN[C@H]1CCN(c2nc3c(cc2F)c(=O)c(C(=O)O)cn3C(C)(C)C)C1	0.25 (≈ 0.69 µM)
O=C(O)c1cn(C2CC2)c2cc(N3CCNCC3)c(F)cc2c1=O [CIPROFLOXACIN]	0.06 (≈ 0.181 µM)
C[C@H]1CN(c2nc3c(cc2F)c(=O)c(C(=O)O)cn3C(C)(C)C)C[C@H]1N	0.13 (≈ 0.359 µM)

test system: Pseudomonas aeruginosa; test: In vitro antibacterial activity against Pseudomonas aeruginosa A 9243.; format: functional; conditions: not given

SMILES	MIC [µg/mL]
C[C@@H]1C[C@@H](N)CN1c1nc2c(cc1F)c(=O)c(C(=O)O)cn2C(C)(C)C (stereo in doubt; 68)	0.5 (≈ 1.38 µM)

same assay, conditions: Pseudomonas aeruginosa; read-out: MIC

SMILES	MIC [µg/mL]
CN[C@H]1CCN(c2nc3c(cc2F)c(=O)c(C(=O)O)cn3C(C)(C)C)C1	0.25 (≈ 0.69 µM)
C[C@H]1CN(c2nc3c(cc2F)c(=O)c(C(=O)O)cn3C(C)(C)C)C[C@H]1N	1 (≈ 2.76 µM)

test system: Escherichia coli; test: (§1) In vivo potency on systemic infection caused by after oral administration to mice expressed as median protective dose.; format: functional; conditions: read-out: PD50

SMILES	ED50 [mg/kg]
C[C@@H]1C[C@@H](N)CN1c1nc2c(cc1F)c(=O)c(C(=O)O)cn2C(C)(C)C (stereo in doubt; 68)	2.6
CN[C@H]1CCN(c2nc3c(cc2F)c(=O)c(C(=O)O)cn3C(C)(C)C)C1	1.2
O=C(O)c1cn(C2CC2)c2cc(N3CCNCC3)c(F)cc2c1=O [CIPROFLOXACIN]	0.7
C[C@H]1CN(c2nc3c(cc2F)c(=O)c(C(=O)O)cn3C(C)(C)C)C[C@H]1N	1.4

test system: Pseudomonas aeruginosa; test: as §1; format: functional; conditions: read-out: PD50

SMILES	ED50 [mg/kg]
C[C@@H]1C[C@@H](N)CN1c1nc2c(cc1F)c(=O)c(C(=O)O)cn2C(C)(C)C (stereo in doubt; 68)	14.4
CN[C@H]1CCN(c2nc3c(cc2F)c(=O)c(C(=O)O)cn3C(C)(C)C)C1	6.1
O=C(O)c1cn(C2CC2)c2cc(N3CCNCC3)c(F)cc2c1=O [CIPROFLOXACIN]	5
C[C@H]1CN(c2nc3c(cc2F)c(=O)c(C(=O)O)cn3C(C)(C)C)C[C@H]1N	4.7

test system: Klebsiella pneumoniae; test: as §1; format: functional; conditions: read-out: PD50

SMILES	ED50 [mg/kg]
C[C@@H]1C[C@@H](N)CN1c1nc2c(cc1F)c(=O)c(C(=O)O)cn2C(C)(C)C (stereo in doubt; 68)	8.2
CN[C@H]1CCN(c2nc3c(cc2F)c(=O)c(C(=O)O)cn3C(C)(C)C)C1	2.6
O=C(O)c1cn(C2CC2)c2cc(N3CCNCC3)c(F)cc2c1=O [CIPROFLOXACIN]	1.5
C[C@H]1CN(c2nc3c(cc2F)c(=O)c(C(=O)O)cn3C(C)(C)C)C[C@H]1N	3.9

test system: Escherichia coli; test: In vitro antibacterial activity against Escherichia coli A 15119.; format: functional; conditions: not given

SMILES	MIC [µg/mL]
C[C@@H]1C[C@@H](N)CN1c1nc2c(cc1F)c(=O)c(C(=O)O)cn2C(C)(C)C (stereo in doubt; 68)	0.016 (≈ 0.0441 µM)

same assay, conditions: Escherichia coli; read-out: MIC

SMILES	MIC [µg/mL]
CN[C@H]1CCN(c2nc3c(cc2F)c(=O)c(C(=O)O)cn3C(C)(C)C)C1	0.03 (≈ 0.0828 µM)
C[C@H]1CN(c2nc3c(cc2F)c(=O)c(C(=O)O)cn3C(C)(C)C)C[C@H]1N	0.016 (≈ 0.0441 µM)
